Test results as given in patent publication US9493468B2, “Antifungal 5,6-dihydro-4H-pyrrolo[1,2-a][1,4]benzo-diazepines and 6H-pyrrolo[1,2-a][1,4]benzodiazepines substituted with heterocyclic derivatives” (Janssen Pharmaceutica NV, priority 2011, dated 2016).

What was measured:
Type in all cases: cell-based
[1] = test system: Trichophyton rubrum; test: Antifungal activity in vitro, resazurin growth inhibition: Trichophyton rubrum (B68183)
Outline: (§1)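 Broth microdilution: RPMI-1640/L-Gln/2% glucose, MOPS pH 7.0±0.1; 10^3 cfu/well; top concentration 64 μM, 2- or 4-fold steps. Dermatophytes at 27° C., one week or more. Resazurin 0.005% (w/v) added, fluorescence 550/590 nm.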

[2] = test system: Candida parapsilosis; test: Antifungal activity in vitro, resazurin growth inhibition: Candida parapsilosis (B66126)
Outline: (§2)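 Compound dilutions, with 64 μM as the highest in-test level, are spotted onto plates, then an inoculum of 10^3 cfu in RPMI-1640 plus 2% glucose (MOPS, pH 7.0±0.1) is added. Plates are incubated at species-dependent time and temperature, up to a week or more at 27° C. for dermatophytes.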

[3] = test system: Microsporum canis; test: Antifungal activity in vitro, resazurin growth inhibition: Microsporum canis (B68128)
Outline: as §1

[4] = test system: Trichophyton mentagrophytes; test: Antifungal activity in vitro, resazurin growth inhibition: Trichophyton mentagrophytes (B70554)
Outline: as §1

[5] = test system: Sporothrix schenkii; test: Antifungal activity in vitro, resazurin growth inhibition: Sporothrix schenkii (B62482)
Outline: as §2

[6] = test system: Aspergillus fumigatus; test: Antifungal activity in vitro, resazurin growth inhibition: Aspergillus fumigatus (B42928)
Outline: as §2

[7] = test system: Cryptococcus neoformans; test: Antifungal activity in vitro, resazurin growth inhibition: Cryptococcus neoformans (B66663)
Outline: as §2

SMILES | Inf. C: Trichophyton rubrum B68183, pIC50 [1] | Inf. D: Candida parapsilosis B66126, pIC50 [2] | Inf. B: Microsporum canis B68128, pIC50 [3] | Inf. G: Trichophyton mentagrophytes B70554, pIC50 [4] | Inf. A: Sporothrix schenkii B62482, pIC50 [5] | Inf. E: Aspergillus fumigatus B42928, pIC50 [6] | Inf. F: Cryptococcus neoformans B66663, pIC50 [7]
Fc1cccc2c1CN=C(c1ccc(C(F)(F)F)nc1)c1cccn1-2 [Compound 90] | 6.19 | <4.19 | 5.42 | 5.33 | <4.19 | <4.19 | <4.19
Fc1cccc2cc(C3=NCc4c(Cl)cc(Cl)cc4-n4cccc43)sc12 [Compound 171] | 5.73 | <4.19 | <4.19 | <4.19 | <4.19 | <4.19 | 6.50
Cl.Clc1ccc2oc(C3NCc4c(Cl)cccc4-n4cccc43)cc2c1 (racemic) [Compound 35] | 6.07 | <4.19 | 5.70 | 5.70 | <4.19 | <4.19 | <4.19
COc1cccc2cc(C3NCc4c(Cl)cc(Cl)cc4-n4cccc43)oc12.Cl (racemic) [Compound 43] | 4.30 | <4.19 | 4.52 | <4.19 | <4.19 | <4.19 | <4.19
CCc1ccc(C2=NCc3c(Cl)cc(Cl)cc3-n3cccc32)nc1 [Compound 73] | 6.09 | <4.49 | 5.10 | <4.49 | <4.49 | <4.49 | <4.49
Cc1cccc2oc(C3NCc4c(Cl)cccc4-n4cccc43)cc12.Cl (racemic) [Compound 36] | 5.10 | <4.19 | 5.19 | 5.21 | <4.19 | <4.19 | <4.19
Cl.Fc1ccc2oc(C3NCc4ccc(Cl)cc4-n4cccc43)cc2c1 (racemic) [Compound 48] | 5.39 | <4.19 | 4.30 | <4.19 | <4.19 | <4.19 | 4.84
Cc1ncc(C2NCc3c(Cl)cccc3-n3cccc32)cn1.Cl (racemic) [Compound 25] | 4.19 | <4.19 | 4.43 | <4.19 | <4.19 | <4.19 | <4.19
Br.Clc1cccc2c1-n1cccc1C(c1ccncc1)NC2 (racemic) [Compound 24] | 4.74 | <4.19 | 4.57 | <4.19 | <4.19 | <4.19 | <4.19
Clc1cccc2c1CN=C(c1ccc3snnc3c1)c1cccn1-2 [Compound 195] | 6.34 | <4.19 | <4.19 | <4.19 | <4.19 | <4.19 | <4.19
CCc1cnc(C2=NCc3c(Cl)cccc3-n3cccc32)s1 [Compound 66] | 6.18 | <4.19 | 4.98 | 4.19 | <4.19 | <4.19 | <4.19
Cc1cc(C2=NCc3ccccc3-n3cccc32)ccn1 [Compound 95] | 5.17 | <4.49 | <4.49 | 4.58 | <4.49 | <4.49 | <4.49
Cl.Fc1cccc2c1CNC(c1ccc(C(F)(F)F)nc1)c1cccn1-2 (racemic) [Compound 17] | 4.71 | <4.19 | 4.46 | <4.19 | <4.19 | <4.19 | 4.23
Clc1cccc2c1CN=C(c1ccc3c(Cl)coc3c1)c1cccn1-2 [Compound 156] | <4.19 | <4.19 | <4.19 | 4.49 | <4.19 | 4.48 | 4.51
Clc1cc2cc(C3=NCc4c(Cl)cccc4-n4cccc43)ccc2o1 [Compound 155] | 7.15 | 4.94 | 6.82 | 6.82 | 5.66 | 5.88 | 5.81
Cn1nc2ccc(C3=NCc4c(Cl)cccc4-n4cccc43)cc2n1 [Compound 108] | 5.99 | <4.49 | 4.98 | 5.43 | <4.49 | <4.49 | <4.49
Cc1ccc2cc(C3NCc4c(Cl)cc(Cl)cc4-n4cccc43)oc2c1.Cl (racemic) [Compound 41] | 4.80 | <4.19 | <4.19 | <4.19 | <4.19 | <4.19 | <4.19
Cl.Clc1cc2oc(C3NCc4c(Cl)cccc4-n4cccc43)cc2cn1 (racemic) [Compound 51] | 5.63 | <4.19 | 5.40 | 4.94 | <4.19 | <4.19 | 4.45
